Key:
[1] = test system: antibodies in sera from SARS patients (sera 1a, 1b, 2, 6, 37, 62, London, SARS-yellow, SARS-green); type: binding, human; design: Binding of serum 6 to linear peptides of protein X1 of SARS-CoV Urbani / Binding of serum 37 to linear peptides of protein X1 of SARS-CoV Urbani / Binding of serum 6 to looped/cyclic peptide (PEPSCAN-ELISA) / Binding of serum 37 to looped/cyclic peptide (PEPSCAN-ELISA) / Binding of serum 37 to looped/cyclic peptides of protein X1 of SARS-CoV Urbani / Binding of serum 6 to linear peptides of protein X2 / Binding of serum 37 to linear peptides of protein X2 / Binding of serum 37 to looped/cyclic peptides of protein X2 of SARS-CoV Urbani / Binding of serum 6 to linear peptides of protein M of SARS-CoV Urbani / Binding of serum 37 to linear peptides of protein M of SARS-CoV Urbani / Binding of serum 6 to looped/cyclic peptides of protein M of SARS-CoV Urbani / Binding of serum 37 to looped/cyclic peptides of protein M of SARS-CoV Urbani / Binding of serum 6 to linear peptides of protein X3 of SARS-CoV Urbani / Binding of serum 37 to linear peptides of protein X3 of SARS-CoV Urbani / Binding of serum 37 to looped/cyclic peptides of protein X3 of SARS-CoV Urbani / Binding of serum 6 to linear peptides of protein X4 of SARS-CoV Urbani / Binding of serum 37 to linear peptides of protein X4 of SARS-CoV Urbani / Binding of serum 37 to looped/cyclic peptides of protein X4 of SARS-CoV Urbani / Binding of serum 6 to linear peptides of protein X5 of SARS-CoV Urbani / Binding of serum 37 to linear peptides of protein X5 of SARS-CoV Urbani / Binding of serum 37 to looped/cyclic peptides of protein X5 of SARS-CoV Urbani / Binding of serum 6 to linear peptides of protein N of SARS-CoV Urbani / Binding of serum 37 to linear peptides of protein N of SARS-CoV Urbani / Binding of serum 6 to linear peptide (PEPSCAN-ELISA) / Binding of serum 1a to looped/cyclic peptides of protein N of SARS-CoV Urbani / Binding of serum 1b to looped/cyclic peptides of protein N of SARS-CoV Urbani / Binding of serum 2 to looped/cyclic peptides of protein N of SARS-CoV Urbani / Binding of serum 6 to looped/cyclic peptides of protein N of SARS-CoV Urbani / Binding of serum 37 to looped/cyclic peptides of protein N of SARS-CoV Urbani / Binding of serum 62 to looped/cyclic peptides of protein N of SARS-CoV Urbani / Binding of serum London to looped/cyclic peptides of protein N of SARS-CoV Urbani / Binding of serum SARS-green to looped/cyclic peptides of protein N of SARS-CoV Urbani: unit not given here
[2] = test system: control sera (pooled serum of ten healthy LUMC hospital workers; commercial negative donor pooled serum from the Dutch bloodbank); type: binding, human; design: Binding of Control serum LUMC to linear peptides / Binding of Control serum Blood-bank to linear peptides / Binding of Control serum LUMC to looped peptides / Binding of Control Serum Blood-Bank to Looped peptides / Binding of Control serum LUMC to linear peptides of the protein M of SARS-CoV Urbani / Binding of Control serum Blood-bank to linear peptides of the protein M of SARS-CoV Urbani / Binding of Control serum LUMC to looped peptides of the protein M of SARS-CoV Urbani / Binding of Control Serum Blood-Bank to Looped peptides of the protein M of SARS-CoV Urbani: unit not given here
[3] = test system: rabbit serum obtained by immunizing a rabbit with the SARS-CoV strain Frankfurt 1; type: binding; design: Binding of a rabbit serum to linear peptides / Binding of a rabbit serum to looped peptides / Rabbit serum linear peptides / Rabbit serum looped peptides / Binding of a rabbit serum to linear peptides of protein N of SARS-CoV Urbani (Rabbit serum linear peptides) / Binding of a rabbit serum to looped/cyclic peptides of protein N of SARS-CoV Urbani (Rabbit serum looped peptides): unit not given here
[4] = test system: recombinant human anti-SARS-CoV antibody 03-018; type: binding; design: Binding of antibody 03-018 to linear peptides of the N protein of SARS-CoV Urbani / Binding of antibody 03-018 to looped/cyclic peptides of the N protein of SARS-CoV Urbani: unit not given here

| Sequence | Binding of serum 1a to linear peptides of protein N of SARS-CoV Urbani [1] | Binding of serum 1a to looped/cyclic peptides of protein N of SARS-CoV Urbani [1] | Binding of serum 1b to linear peptides of protein N of SARS-CoV Urbani [1] | Binding of serum 1b to looped/cyclic peptides of protein N of SARS-CoV Urbani [1] | Binding of serum 2 to linear peptides of protein N of SARS-CoV Urbani [1] | Binding of serum 2 to looped/cyclic peptides of protein N of SARS-CoV Urbani [1] | Binding of serum 6 to looped/cyclic peptides of protein N of SARS-CoV Urbani [1] | Binding of serum 37 to looped/cyclic peptides of protein N of SARS-CoV Urbani [1] | Binding of serum 62 to looped/cyclic peptides of protein N of SARS-CoV Urbani [1] | Binding of serum London to looped/cyclic peptides of protein N of SARS-CoV Urbani [1] | Binding of serum SARS-green to looped/cyclic peptides of protein N of SARS-CoV Urbani [1] | Binding of serum SARS-yellow to looped/cyclic peptides of protein N of SARS-CoV Urbani [1] | Binding of Control Serum Blood-Bank to Looped peptides [2] | Binding of Control serum Blood-bank to linear peptides [2] | Binding of Control serum LUMC to linear peptides [2] | Binding of Control serum LUMC to looped peptides [2] | Binding of a rabbit serum to linear peptides of protein N of SARS-CoV Urbani (Rabbit serum linear peptides) [3] | Binding of a rabbit serum to looped/cyclic peptides of protein N of SARS-CoV Urbani (Rabbit serum looped peptides) [3] | Binding of antibody 03-018 to linear peptides of the N protein of SARS-CoV Urbani [4] | Binding of antibody 03-018 to looped/cyclic peptides of the N protein of SARS-CoV Urbani [4] | other results |
| --- | --- | --- | --- | --- | --- | --- | --- | --- | --- | --- | --- | --- | --- | --- | --- | --- | --- | --- | --- | --- | --- |
| RNPNNNAATVLQLPQ | 0.2 | 0.4 | 0.1 | 0.4 | 0.3 | 0.7 | 0.3 | 0.8 | 0.9 | 0.6 | 0.6 | 0.4 | 0.8 | 0.7 | 0.7 | 0.9 | 0.1 | 0.8 | 0.1 | 0.2 | Binding of serum 6 to linear peptides of protein N of SARS-CoV Urbani [1]: 0.2; Binding of serum 37 to linear peptides of protein N of SARS-CoV Urbani [1]: 0.6; Binding of serum 62 to linear peptides of protein N of SARS-CoV Urbani [1]: 0.7; Binding of serum London to linear peptides of protein N of SARS-CoV Urbani [1]: 0.5; Binding of serum SARS-green to linear peptides of protein N of SARS-CoV Urbani [1]: 0.3; Binding of serum SARS-yellow to linear peptides of protein N of SARS-CoV Urbani [1]: 0.6 |
| VTKKSAAEASKKPRQ | – | 0.3 | – | 0.2 | – | 0.6 | 0.3 | 0.6 | 0.4 | 0.5 | 0.6 | 0.7 | 0.6 | 0.9 | 0.9 | 0.7 | 0.1 | 0.6 | 0.1 | 0.2 | Recognition of the peptide by sera of SARS-CoV infected individuals, and form (linear, looped/cyclic) in which it is recognized [1]: recognized in linear form |
| FPRGQGVPINTNSGP | 0.2 | 0.3 | 0.1 | 0.2 | 0.3 | 0.4 | 0.2 | 0.5 | 0.4 | 0.4 | 0.4 | 0.4 | 0.6 | 0.8 | 0.7 | 0.5 | 0.2 | 0.2 | 0.1 | 0.2 | Binding of serum 6 to linear peptides of protein N of SARS-CoV Urbani [1]: 0.2; Binding of serum 37 to linear peptides of protein N of SARS-CoV Urbani [1]: 0.7; Binding of serum 62 to linear peptides of protein N of SARS-CoV Urbani [1]: 0.6; Binding of serum London to linear peptides of protein N of SARS-CoV Urbani [1]: 0.5; Binding of serum SARS-green to linear peptides of protein N of SARS-CoV Urbani [1]: 0.3; Binding of serum SARS-yellow to linear peptides of protein N of SARS-CoV Urbani [1]: 0.6 |
